Measured values from patent publication US10722491B2, “Phenol compound and combination of same with a benzodiazepine fused to 1,4-dihydropyridine for treating diseases of the central nervous and vascular systems” (UNIVERSIDAD DE LA HABANA, priority 2016, dated 2020).

Legend:
[1] = O2.- radical scavenging in the pyrogallol autoxidation test; type: biochemical
Procedure: FIG. 2. Activity of KM-34 (5-100 μM) as radical scavenger O2.− expressed as the percentage inhibition of autoxidation of pyrogallol. The same was obtained by varying the absorbance at 420 nm for 1 minute with respect to a blank uninhibited reaction: without KM-34; the slope was calculated for each concentration of the sample and for the target with a R2>0.98. The reaction takes place in […] Tris-HCl pH 8.2 buffer and was initiated by the addition of 0.134 mM Pirogalol*P<0.05 to the carrier (uninhibited reaction).
A non-enzymatic system generating these radicals was used to evaluate the O2.^− sequestration activity of KM-34, which catalyzes the autoxidation of pyrogallol, forming a colored compound that absorbs at 420 nm (Marklund, 1985).

[2] = Spectrophotometric evidence of interactions between KM-34 and Fe2+; type: physicochemical; details: 100 μM KM-34; FeCl2 50, 100 and 200 μM; pH 7.4
Procedure: FIG. 4. Maximum absorption data on UV-VIS (200-500 nm) of the 100 μM KM-34 in a mixture of 10 mM phosphate buffer (KH2PO4/ KOH) pH 7.4 and absolute ethanol 14:1 (v:v) and The absorbance in the presence of FeCl2 (50, 100 and 200 μM) dissolved in 10mM HCL.
In order to verify the existence of possible interactions between KM-34 and Fe2+ (through modifications in their spectra), the following results were obtained:
This could indicate possible interactions between Fe2+ and KM-34 where the ion is stabilized at Fe3+ by unsaturated ligands due to the stabilization of the larger crystalline field from an electron configuration d6 (Fe2+) to a d5 (Fe3+) (Hider et al., 1981, Hider et al., 1983). This justifies the response obtained in the oxidative degradation test of DR where it was observed that the KM-34 in these conditions seems to act more as a coordinator of Fe2+ than as a .OH scavenger.

rat brain homogenate = assay: Spontaneous or Fe3+/AA-induced lipid peroxidation (POL) in rat brain homogenate; type: biochemical; details: 37° C 1 hour, MDA
Procedure: FIG. 5. Effects of KM-34 (0.01-100 μM) on spontaneous lipid peroxidation and e induced by 100 mM FeCl3 and 100 mM AA. The control contains absolute ethanol instead of KM-34. The samples were incubated at 37° C for 1 hour and then the MDA levels were quantified by thiobarbituric acid (ATB) and the absorbance was determined at 532 nm. Values are expressed as the mean ± SD (n=3). *P<0.05 with respect to the control.
The brain homegenate is rich in phospholipids, which undergo spontaneous or induced autoxidation by the presence of FeCl3 and AA, where the latter is oxidized at the expense of the metal being reduced and thus the ion is available to catalyze the Fenton-Habber reaction-Weiss (Hiroi et al., 2005; Kooncumchoo, 2005).

[3] = tested on: animals damaged with 6-OHDA; assay: 6-OHDA Parkinson's model, cylinder test; type: in vivo, rats; details: 7 days after 6-OHDA damage
[4] = tested on: animals damaged with 6-OHDA; assay: 6-OHDA Parkinson's model, vertical exploratory activity; type: in vivo, rats
[5] = tested on: occlusion of the middle cerebral artery in rats; assay: Transient middle cerebral artery occlusion, cerebral infarct size (TTC); type: in vivo; details: for Total volume of infarction (percentage of the contralateral hemisphere): 1 hour after reperfusion, 90 min occlusion, 23 h reperfusion, vehicle 27.5%
Procedure: FIG. 13. Acute treatment with KM-34 reduced the volume of infarction edema and deficit in rat behavior after 90 min of middle cerebral artery occlusion (MACA) and 23 hours of reperfusion. The different doses of the compound were administered orally 1 hour after reperfusion. (A) Representative brain coronal sections (2 mm thick) of the sham and ischemic groups treated with vehicle or KM-34 (0.1, 0.5 or 1 mg/kg) and stained with 2,3,5-triphenyltetrazolium (TTC) 2%. The red regions correspond to undamaged tissue and white to ischemic regions. (B) Quantitative analysis of cortical, subcortical and total lesion size. (C) Neurological deficit. The bars represent the mean ± SEM (n=8). Different letters in (A) and * in (B): p<0.05, by ANOVA and post hoc of Newman-Keuls. Scale=10 mm.
The animals were randomly divided into the following groups (n=8 per group): (1) vehicle treated ischemia/reperfusion (I/R) control, (2) KM-34 treated I/R 0.1 mg/kg, (3) I/R treated with KM-34 0.5 mg/kg, (4) I/R treated with KM-34 1 mg/kg, (5) sham-operated vehicle treated and (6) sham—With KM-34 1 mg/kg. In all cases the treatment was administered orally (with an intragastric cannula). […]
Transient cerebral ischemia was performed by the OACM, using the intraluminal filament method. […] After 23 hours of reperfusion, the neurological deficit was evaluated and the animals sacrificed to determine the infarct volume and perform the behavioral evaluations.
Cerebral infarction was determined by staining with TTC, a colorless compound in solution but which, when reduced by dehydrogenases of functional mitochondria, forms a red brick formazan salt. […]
The animals were anesthetized again after the neurological evaluation and were perfused transcardially with 20 mL of saline at 4° C. […] The edema index (volume of the hemisphere ipsilateral to the OACM/volume of the contralateral hemisphere) and the volume of corrected infarction (volume of the lesion/edema index) were calculated to avoid overestimation of the infarct volume by cerebral edema. Infarct volume was expressed as a percentage of the contralateral hemisphere.

SMILES: CC1(C)OC(=O)C(=Cc2ccc(O)c(O)c2)C(=O)O1 [KM-34, 5-[(3,4-dihydroxyphenyl)methylidene]-2,2-dimethyl-1,3-dioxane-4,6-dione]
- Concentration significantly (p<0.05) inhibiting formation of oxidized pyrogallol vs vehicle [1]: greater than 5 μM
- IC50 ([1]; Tris-HCl pH 8.2, read-out: IC50, inhibition of autoxidation of pyrogallol (O2.- scavenging)): 11 µM
- Inhibition of oxidation of pyrogallol ([1]; from 50 μM): totally inhibited
- Absorbance of KM-34 at absorption maxima 262, 345 and 472 nm in presence of Fe2+ [2]: is modified as the concentration of the ferrous ion increases
- Concentration significantly inhibiting Fe3+/AA-induced POL (rat brain homogenate; induced by FeCl3 and AA): > 10 µM
- Concentration significantly inhibiting spontaneous POL (rat brain homogenate; spontaneous lipid peroxidation): higher than 0.1 μM
- % asymmetry, cylinder test ([3]; 0.5 mg/kg): no statistically significant difference with respect to the damaged group without treatment
- % asymmetry, cylinder test ([3]; 2 mg/kg and 1 mg/kg): equal to the animals (healthy) animals
- Vertical exploratory behavior ([4]; 0.5 and 1 mg doses, vs damaged animals): did not show statistically significant differences
- Vertical exploratory behavior ([4]; maximum dose 2 mg/Kg): statistically significant differences with respect to damaged animals
- Total volume of infarction (percentage of the contralateral hemisphere) ([5]; 0.5 mg/kg oral): 15.7%
- Total volume of infarction (percentage of the contralateral hemisphere) ([5]; 1 mg/kg oral): 5.3%
- Tissue damage or behavioral alterations under basal conditions ([5]; sham group (without OACM), KM-34 1 mg/kg oral): no sign of tissue damage or behavioral alterations
